According to US11771123B2, “Methods for treating biomass to produce oligosaccharides and related compositions” (Cambridge Glycoscience Ltd, priority 2019, dated 2023):

test: Glaze formation: dried on glass plate and scored with a knife; format: physicochemical; conditions: cellobiose alone, 10-320 mM, dried at 37° C.
Description: 100 μl of 10-320 mM (10, 20, 40, 80, 160, and 320 mM) cellobiose±1% w/v birchwood xylan was pipetted onto a glass plate. • 2. Samples were dried at 37° C. • 3. Samples were scored with a knife to test whether or not the ingredient settled into a solid glaze. […] With a cellobiose concentration of 160 mM or higher (5.5% w/v, or 550% w/w as compared with xylan) the morphology of the glaze reverted to that without xylan present.

| SMILES | Glaze formation |
| --- | --- |
| O=C[C@H](O)[C@@H](O)[C@H](O[C@@H]1O[C@H](CO)[C@@H](O)[C@H](O)[C@H]1O)[C@H](O)CO [cellobiose] | no firm glaze was formed |

test: Flow characteristics: timed flow from a vertically stood syringe under gravity; format: physicochemical; conditions: syringe filled with 20 mL test liquid, room temperature
Description: The glucose solutions were made by weighing 6, 12, 18, and 24 g D-glucose respectively and making up with 90° C. water to 30 mL. The flow characteristics were measured by timing the flow rate of 5 mL, and where suitable, 20 mL of the liquids from a vertically stood syringe (BD Plastipak 300613) filled with 20 mL of test liquid under gravity at room temperature.
Sample were analyzed for flow characteristics as described in Example 9.

| SMILES | Time for 5 mL flow | Time for 20 mL flow |
| --- | --- | --- |
| O=C[C@H](O)[C@@H](O)[C@H](O)[C@H](O)CO [80% w/v glucose, D-glucose] | 5 s | 38 s |
| O=C[C@H](O)[C@@H](O)[C@H](O)[C@H](O)CO [20% w/v glucose, D-glucose] | 2.3 s | 13.5 s |
| O=C[C@H](O)[C@@H](O)[C@H](O)[C@H](O)CO [60% w/v glucose, D-glucose] | 3 s | 20 s |
| O=C[C@H](O)[C@@H](O)[C@H](O)[C@H](O)CO [40% w/v glucose, D-glucose] | 2.5 s | 15 s |
